These results are taken from patent publication US11000033B2, “Ketone or oxime compound, and herbicide” (NISSAN CHEMICAL CORPORATION, priority 2014, dated 2021).

Common to all, as to format: in vivo
Data set [1] deals with Setaria viridis. Briefly: Test Example 4: herbicidal effect by soil treatment (symbol G). The following applies: application herbicide amount 320 g/ha. The method in brief: (§1)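 Seeds were sown in sterilized diluvial soil, covered with about 1.5 cm of soil, and the soil surface was sprayed with a water-diluted emulsion of the compound at a predetermined rate. Plants grew in a greenhouse at 25° C. to 30° C.; effects were scored visually 3 weeks after application.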

The test system of data set [2] is Abutilon theophrasti. Briefly: Test Example 5: herbicidal effect by foliage application, plastic box (symbol M). To be noted: 320 g/ha, 3 weeks after application. A digest of the protocol: (§2)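 Seeds were sown in sterilized diluvial soil, covered with about 1.5 cm of soil and grown 14 days in a greenhouse at 25° C. to 30° C. An emulsifiable formulation diluted in water to a set rate was sprayed over foliage, and injury was scored 3 weeks later.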

Data set [3] relates to Apera spica-venti. Briefly: Test Example 5: herbicidal effect by foliage application, plastic box (symbol L). To be noted: 320 g/ha, 3 weeks after application. The method in brief: as §2
Data set [4] has as its system Monochoria vaginalis. Briefly: Test Example 1: herbicidal activity, application before weed generation in submerged conditions (symbol C). The following applies: application herbicide amount 320 g/ha. The method in brief:
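Flooded alluvial soil (4 cm water) was mixed-sown with the three weed species, and 2.5-leaf rice seedlings were transplanted. On sowing day, a water-diluted emulsion at a predetermined rate was applied to the water surface. After 3 weeks in a 25–30 °C greenhouse, effect was scored 0–5.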

Data set [5] has as its system Monochoria vaginalis. Put plainly: Test Example 2: herbicidal activity, application during weed generation in submerged conditions (symbol C). The following applies: Table 23; application herbicide amount 320 g/ha; grade 0-5 by criteria of Test Example 1. A digest of the protocol:
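Scoring of herbicidal effect took place 3 weeks after treatment, using the criteria of the earlier test. Treatment was water-surface application of diluted emulsifiable compound at a set dose. Plants were at one- to two-leaf stage in submerged alluvial soil (4 cm depth), greenhouse 25-30° C.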

Data set [6] relates to soybean. Put plainly: Test Example 5: effect on crop by foliage application, plastic box (symbol d). To be noted: 320 g/ha, 3 weeks after application. The method in brief:
(§3)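 Greenhouse test at 25° C. to 30° C. Seeds of crops and weeds were spot-sown in boxes of sterilized diluvial soil under roughly 1.5 cm soil cover, then grown for foliage treatment.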

In data set [7] the test system is Veronica persica. Put plainly: Test Example 4: herbicidal effect by soil treatment (symbol R). To be noted: application herbicide amount 320 g/ha. A digest of the protocol: as §1
The subject of data set [8] is beet. Put plainly: Test Example 4: effect on crop by soil treatment (symbol f). To be noted: application herbicide amount 320 g/ha. A digest of the protocol: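 Greenhouse culture at 25° C. to 30° C. followed sowing of seed in spots on sterilized diluvial soil with a soil cover close to 1.5 cm thick.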
The test system of data set [9] is corn. Briefly: Test Example 5: effect on crop by foliage application, plastic box (symbol c). The following applies: 320 g/ha, 3 weeks after application. A digest of the protocol: as §3
For data set [10], the system named is directly sowed rice plant. Put plainly: Test Example 3: effect on crop by foliage application, Wagner pot (symbol b). To be noted: application herbicide amount 320 g/ha. The method in brief:
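Alluvial soil in a 1/10000-are Wagner pot was flooded to a water depth of 0.1–0.5 cm. Echinochloa crus-galli var. crus-galli, Leptochloa chinensis, Cyperus difformis and rice were sown into it and grown in a greenhouse at 25–30 °C.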

Data set [11] has as its system Chenopodium album. Put plainly: Test Example 4: herbicidal effect by soil treatment (symbol O). To be noted: application herbicide amount 320 g/ha. A digest of the protocol: as §1
The subject of data set [12] is Avena fatua. Put plainly: Test Example 4: herbicidal effect by soil treatment (symbol I). The following applies: application herbicide amount 320 g/ha. A digest of the protocol: as §1
The subject of data set [13] is Echinochloa crus-galli var. crus-galli. Briefly: Test Example 5: herbicidal effect by foliage application, plastic box (symbol H). To be noted: 320 g/ha, 3 weeks after application. A digest of the protocol: as §2
The subject of data set [14] is rapeseed. Briefly: Test Example 5: effect on crop by foliage application, plastic box (symbol g). The following applies: 320 g/ha, 3 weeks after application. A digest of the protocol:
as §3

With `CCOC(=O)C(C(=O)Cc1ccccc1)C1CC(O)=C(c2c(C)cc(C)cc2C)C1=O` (stereo not shown) [2-011], in data set [1], the “G: Setaria viridis, herbicidal effect grade” value (shortened to “G: Setaria viridis”) is 0 (Herbicidal ratio of 5% or lower (almost no effect)). For the same compound, the “M: Abutilon theophrasti, herbicidal effect grade” value (from here on “M: Abutilon theophrasti”) in [2] was 0 (Herbicidal ratio of 5% or lower (almost no effect)). Besides, the “L: Apera spica-venti, herbicidal effect grade” value (from here on “L: Apera spica-venti”) in [3] is 0 (Herbicidal ratio of 5% or lower (almost no effect)). The “Herbicidal effect grade, C: Monochoria vaginalis” value (shortened to “Herbicidal effect grade, C”) in data set [4] and in data set [5] was 0 (Herbicidal ratio of 5% or lower (almost no effect)) in each case. The “d: soybean, effect on crop grade” value in data set [6] is given as 0 (Herbicidal ratio of 5% or lower (almost no effect)). In data set [7], the “R: Veronica persica, herbicidal effect grade” value (from here on “R: Veronica persica”) is recorded as 0 (Herbicidal ratio of 5% or lower (almost no effect)). For the same compound, the “f: beet, effect on crop grade” value in data set [8] is reported as 0 (Herbicidal ratio of 5% or lower (almost no effect)). Also, the “c: corn, effect on crop grade” value in data set [9] was 0 (Herbicidal ratio of 5% or lower (almost no effect)). Besides, the “effect on crop b (directly sowed rice plant), grade 0-5” value (from here on “effect on crop b”) in [10] is 0 (Herbicidal ratio of 5% or lower (almost no effect)). The “O: Chenopodium album, herbicidal effect grade” value (shortened to “O: Chenopodium album”) in [11] is on record as 0 (Herbicidal ratio of 5% or lower (almost no effect)). Also, the “I: Avena fatua, herbicidal effect grade” value in data set [12] is recorded as 0 (Herbicidal ratio of 5% or lower (almost no effect)). In addition, the “H: Echinochloa crus-galli var. crus-galli, herbicidal effect grade” value in data set [13] is 2 (Herbicidal ratio of 20% or higher and lower than 40%). For the same compound, in data set [14], the “g: rapeseed, effect on crop grade” value is listed as 0 (Herbicidal ratio of 5% or lower (almost no effect)).
Turning to `CCOC(=O)C(CC)(C(C)=O)C1CC(O)=C(c2c(C)cc(C)cc2C)C1=O` (stereo not shown) [2-012], in [1], the “G: Setaria viridis” value is reported as 0 (Herbicidal ratio of 5% or lower (almost no effect)). For the same compound, the “M: Abutilon theophrasti” value in [2] is 0 (Herbicidal ratio of 5% or lower (almost no effect)). For the same compound, in [3], the “L: Apera spica-venti” value is on record as 0 (Herbicidal ratio of 5% or lower (almost no effect)). Further, the “Herbicidal effect grade, C” value in data set [4] and in data set [5] was 0 (Herbicidal ratio of 5% or lower (almost no effect)) in each case. The “d: soybean, effect on crop grade” value in data set [6] is listed as 0 (Herbicidal ratio of 5% or lower (almost no effect)). The “R: Veronica persica” value in data set [7] is on record as 0 (Herbicidal ratio of 5% or lower (almost no effect)). Also, in [8], the “f: beet, effect on crop grade” value is given as 0 (Herbicidal ratio of 5% or lower (almost no effect)). In addition, the “c: corn, effect on crop grade” value in data set [9] was 0 (Herbicidal ratio of 5% or lower (almost no effect)). Moreover, in data set [10], the “effect on crop b” value is given as 0 (Herbicidal ratio of 5% or lower (almost no effect)). For the same compound, the “O: Chenopodium album” value in data set [11] is recorded as 0 (Herbicidal ratio of 5% or lower (almost no effect)). Besides, in data set [12], the “I: Avena fatua, herbicidal effect grade” value is 0 (Herbicidal ratio of 5% or lower (almost no effect)). The “H: Echinochloa crus-galli var. crus-galli, herbicidal effect grade” value in data set [13] was 1 (Herbicidal ratio of 5% or higher and lower than 20%). Further, the “g: rapeseed, effect on crop grade” value in [14] is 0 (Herbicidal ratio of 5% or lower (almost no effect)).
In the case of `CCOC(=O)C(C(=O)c1ccccn1)C1CC(O)=C(c2c(C)cc(C)cc2C)C1=O` (stereo not shown) [2-013], the “G: Setaria viridis” value in data set [1] was 1 (Herbicidal ratio of 5% or higher and lower than 20%). Moreover, the “M: Abutilon theophrasti” value in data set [2] is reported as 0 (Herbicidal ratio of 5% or lower (almost no effect)). In data set [3], the “L: Apera spica-venti” value is 4 (Herbicidal ratio of 70% or higher and lower than 90%). The “Herbicidal effect grade, C” value in data set [4] and in data set [5] was 0 (Herbicidal ratio of 5% or lower (almost no effect)) in each case. Moreover, the “d: soybean, effect on crop grade” value in data set [6] is given as 0 (Herbicidal ratio of 5% or lower (almost no effect)). Moreover, the “R: Veronica persica” value in data set [7] is listed as 0 (Herbicidal ratio of 5% or lower (almost no effect)). The “f: beet, effect on crop grade” value in data set [8] is listed as 0 (Herbicidal ratio of 5% or lower (almost no effect)). Also, the “c: corn, effect on crop grade” value in data set [9] was 4 (Herbicidal ratio of 70% or higher and lower than 90%). Besides, in data set [10], the “effect on crop b” value is given as 0 (Herbicidal ratio of 5% or lower (almost no effect)). Further, the “O: Chenopodium album” value in data set [11] is 0 (Herbicidal ratio of 5% or lower (almost no effect)). Moreover, the “I: Avena fatua, herbicidal effect grade” value in data set [12] is on record as 0 (Herbicidal ratio of 5% or lower (almost no effect)). In addition, the “H: Echinochloa crus-galli var. crus-galli, herbicidal effect grade” value in [13] is given as 5 (Herbicidal ratio of 90% or more (almost completely withered)). The “g: rapeseed, effect on crop grade” value in data set [14] is 4 (Herbicidal ratio of 70% or higher and lower than 90%).
On to `COC(=O)C(C(=O)C1CC1)C1CC(O)=C(c2c(C)cc(C)cc2C)C1=O` (stereo not shown) [2-014], for which the “G: Setaria viridis” value in data set [1] is 5 (Herbicidal ratio of 90% or more (almost completely withered)). Further, the “M: Abutilon theophrasti” value in data set [2] was 3 (Herbicidal ratio of 40% or higher and lower than 70%). Further, in data set [3], the “L: Apera spica-venti” value is 4 (Herbicidal ratio of 70% or higher and lower than 90%). The “Herbicidal effect grade, C” value in data set [4] is 1 (Herbicidal ratio of 5% or higher and lower than 20%); in data set [5] it was 0 (Herbicidal ratio of 5% or lower (almost no effect)). In addition, the “d: soybean, effect on crop grade” value in data set [6] is listed as 0 (Herbicidal ratio of 5% or lower (almost no effect)). Further, in [7], the “R: Veronica persica” value was 0 (Herbicidal ratio of 5% or lower (almost no effect)). The “f: beet, effect on crop grade” value in data set [8] is 0 (Herbicidal ratio of 5% or lower (almost no effect)). The “c: corn, effect on crop grade” value in data set [9] was 3 (Herbicidal ratio of 40% or higher and lower than 70%). The “effect on crop b” value in [10] was 5 (Herbicidal ratio of 90% or more (almost completely withered)). For the same compound, the “O: Chenopodium album” value in data set [11] was 0 (Herbicidal ratio of 5% or lower (almost no effect)). For the same compound, in [12], the “I: Avena fatua, herbicidal effect grade” value was 0 (Herbicidal ratio of 5% or lower (almost no effect)). Also, the “H: Echinochloa crus-galli var. crus-galli, herbicidal effect grade” value in [13] is recorded as 5 (Herbicidal ratio of 90% or more (almost completely withered)). Also, the “g: rapeseed, effect on crop grade” value in data set [14] is 4 (Herbicidal ratio of 70% or higher and lower than 90%).
As to `CCCC(=O)CC1CC(O)=C(c2c(C)cc(C)cc2C)C1=O` (stereo not shown) [2-021], the “G: Setaria viridis” value in [1] is 5 (Herbicidal ratio of 90% or more (almost completely withered)). The “M: Abutilon theophrasti” value in data set [2] is given as 0 (Herbicidal ratio of 5% or lower (almost no effect)). In data set [3], the “L: Apera spica-venti” value is given as 0 (Herbicidal ratio of 5% or lower (almost no effect)). For the same compound, the “Herbicidal effect grade, C” value in data set [4] was 2 (Herbicidal ratio of 20% or higher and lower than 40%); in data set [5] it was 1 (Herbicidal ratio of 5% or higher and lower than 20%). The “d: soybean, effect on crop grade” value in data set [6] is recorded as 0 (Herbicidal ratio of 5% or lower (almost no effect)). Also, the “R: Veronica persica” value in data set [7] is on record as 0 (Herbicidal ratio of 5% or lower (almost no effect)). The “f: beet, effect on crop grade” value in data set [8] is 0 (Herbicidal ratio of 5% or lower (almost no effect)). Moreover, the “c: corn, effect on crop grade” value in data set [9] was 3 (Herbicidal ratio of 40% or higher and lower than 70%). Moreover, in data set [10], the “effect on crop b” value is reported as 5 (Herbicidal ratio of 90% or more (almost completely withered)). The “O: Chenopodium album” value in [11] is 0 (Herbicidal ratio of 5% or lower (almost no effect)). In addition, the “I: Avena fatua, herbicidal effect grade” value in data set [12] was 0 (Herbicidal ratio of 5% or lower (almost no effect)). For the same compound, the “H: Echinochloa crus-galli var. crus-galli, herbicidal effect grade” value in data set [13] is 4 (Herbicidal ratio of 70% or higher and lower than 90%). The “g: rapeseed, effect on crop grade” value in [14] was 3 (Herbicidal ratio of 40% or higher and lower than 70%).
